Values quoted from earlier work as cited in patent publication US20150320096A1, “Dietary Supplement” (MC Corp., priority 2013, published 2015).

Legend:
[1] = system: glut-4 transporters; conditions: muscle tissue
[2] = oral administration
[3] = oral

O=C(O)CCCCC1CCSS1 (stereo not drawn) [ALA, Alpha-Lipoic Acid]
increase in the number of glut-4 transporters on the outside of the muscle cells [1]: ≤ 50%

COC1=C(OC)C(=O)C(C/C=C(\C)CC/C=C(\C)CC/C=C(\C)CC/C=C(\C)CC/C=C(\C)CC/C=C(\C)CC/C=C(\C)CC/C=C(\C)CC/C=C(\C)CCC=C(C)C)=C(C)C1=O [coenzyme Q10, Coenzyme Q10]
blood glucose levels (dietary supplementation): significantly reduce | hemoglobin A1C (HbA1C) (dietary supplementation): lower | increase of plasma coenzyme Q10 (dietary supplementation, patients with diabetes): at least 3 fold | blood pressure (patients with diabetes): significantly lowered | insulin requirements (patients with diabetes): reduce

C/C1=C2/[N-][C@H]([C@H](CC(N)=O)[C@@]2(C)CCC(=O)NC[C@@H](C)OP(=O)([O-])O[C@H]2[C@@H](O)[C@@H](n3cnc4cc(C)c(C)cc43)O[C@@H]2CO)[C@]2(C)N=C(/C(C)=C3N=C(/C=C4N=C1[C@@H](CCC(N)=O)C\4(C)C)[C@@H](CCC(N)=O)[C@]\3(C)CC(N)=O)[C@@H](CCC(N)=O)[C@]2(C)CC(N)=O.[CH3-].[Co+3] [Methylcobalamin]
burning sensations, numbness, loss of sensation, and muscle cramps [2]: subjective improvement | ingested dose absorbed by diffusion process [3]: approximately 1%
